# Test results: paper PMC3927474, “Whole body synthesis rates of DHA from α-linolenic acid are greater than brain DHA accretion and uptake rates in adult rats” (Journal of Lipid Research, 2014)
# Columns and labels:
# Experiment in all cases: Brain gene expression (TLDA qPCR)
# Type in all cases: in vivo, rat
# Details in all cases: 15 wk diet; control diet = 1
# 15-lipoxygenase = tested on: 15-lipoxygenase
# Description: (§1) RNA was extracted from the flash-frozen half brains of the 15 week postweaning rats. The brain was briefly thawed and dissected to isolate the brainstem, cerebellum, cortex, hippocampus, striatum, and the rest of the brain. RNA was extracted from the brain regions using Trizol reagent (Ambion; Life Technologies, Burlington, ON, Canada) according to the manufacturer's protocol. […] Chloroform was added to the Trizol reagent at a ratio of 1:5 (chloroform:Trizol reagent) and the solution was mixed and incubated at room temperature. The solution was then centrifuged at 12,000 g for 15 min at 4°C. […] The samples were then centrifuged at 12,000 g for 10 min at 4°C to precipitate the RNA pellet. […] The pellet was allowed to air dry, and was then dissolved in RNase-free water. A Nanodrop 1000 (NanoDrop Technologies Inc., Wilmington, DE) was used to determine the concentration and purity of each sample by measuring absorbance at 260 and 280 nm. Each sample was aliquoted to make 1 μg of RNA per 10 μl of sample and stored at -80°C. A high-capacity cDNA reverse transcription kit (Applied Biosystems, Burlington, ON, Canada) was used to reverse transcribe 1 μg of RNA according to the manufacturer's instructions. Newly synthesized cDNA was stored at -20°C until the following day when it was loaded onto TaqMan low density array (TLDA) plates. Quantitative real-time PCR was performed using TLDA (Applied Biosystems) on the 7900HT real-time PCR system (Applied Biosystems). cDNA (50 ng) was diluted with water to make a volume of 50 μl and mixed with 50 μl of TaqMan Universal PCR Master Mix (Applied Biosystems). The mixture was then loaded onto a customized preconfigured 384-well TLDA plate according to the manufacturer's protocol. TaqMan gene expression assays were used to assess 21 genes that were previously reported to be differentially expressed with n-3 deprivation. […] All genes were normalized to phosphoglycerate kinase 1. Similar results were found when normalizing to β-actin or 18S rRNA.
# COX-2 = tested on: COX-2
# Description: as §1
# PPARg = tested on: PPARg
# Description: as §1
# TNF-α receptor member 1a = tested on: TNF-α receptor member 1a
# Description: as §1
# [1] = tested on: brain-derived neurotrophic factor
# Description: as §1
# dopamine receptor D2 = tested on: dopamine receptor D2
# Description: as §1
# group 2a sPLA2 = tested on: group 2a sPLA2
# Description: as §1
# group 6 iPLA2 = tested on: group 6 iPLA2
# Description: as §1
# heme oxygenase 1 = tested on: heme oxygenase 1
# Description: as §1
# [2] = tested on: prostaglandin E synthase 3
# Description: as §1
# retinoic acid receptor α = tested on: retinoic acid receptor α
# Description: as §1
# retnoid X receptor α = tested on: retnoid X receptor α
# Description: as §1
# retnoid X receptor β = tested on: retnoid X receptor β
# Description: as §1
# transthyretin = tested on: transthyretin
# Description: as §1
# tyrosine hydroxylase = tested on: tyrosine hydroxylase
# Description: as §1
# uncoupling protein 2 = tested on: uncoupling protein 2
# Description: as §1
# [3] = tested on: vesicular monoamine transporter 2
# Description: as §1
smiles,measurement,setting,value
"CC/C=C\C/C=C\C/C=C\CCCCCCCC(=O)O [ALA, α-linolenic acid]",Brainstem gene expression: 15 LOX,15-lipoxygenase,0.91 RQ
same,Cerebellum gene expression: 15 LOX,15-lipoxygenase,0.63 RQ
same,Cortex gene expression: 15 LOX,15-lipoxygenase,0.77 RQ
same,Hippocampus gene expression: 15 LOX,15-lipoxygenase,0.74 RQ
same,Rest of brain gene expression: 15 LOX,15-lipoxygenase,0.62 RQ
same,Striatum gene expression: 15 LOX,15-lipoxygenase,1.00 RQ
same,Brainstem gene expression: COX 2,COX-2,0.87 RQ
same,Cerebellum gene expression: COX 2,COX-2,1.46 RQ
same,Cortex gene expression: COX 2,COX-2,1.17 RQ
same,Hippocampus gene expression: COX 2,COX-2,1.15 RQ
same,Rest of brain gene expression: COX 2,COX-2,0.92 RQ
same,Striatum gene expression: COX 2,COX-2,1.04 RQ
same,Brainstem gene expression: PPARg,PPARg,0.91 RQ
same,Cerebellum gene expression: PPARg,PPARg,1.17 RQ
same,Cortex gene expression: PPARg,PPARg,1.21 RQ
same,Hippocampus gene expression: PPARγ,PPARg,0.47 RQ
same,Rest of brain gene expression: PPARg,PPARg,1.18 RQ
same,Striatum gene expression: PPARg,PPARg,0.90 RQ
same,Brainstem gene expression: TNFaR1a,TNF-α receptor member 1a,1.30 RQ
same,Cerebellum gene expression: TNFaR1a,TNF-α receptor member 1a,1.12 RQ
same,Cortex gene expression: TNFaR1a,TNF-α receptor member 1a,1.11 RQ
same,Hippocampus gene expression: TNFa R 1a,TNF-α receptor member 1a,1.14 RQ
same,Rest of brain gene expression: TNFaR1a,TNF-α receptor member 1a,0.95 RQ
same,Striatum gene expression: TNFaR1a,TNF-α receptor member 1a,0.98 RQ
same,Brainstem gene expression: BDNF,[1],0.72 RQ
same,Cerebellum gene expression: BDNF,[1],0.98 RQ
same,Cortex gene expression: BDNF,[1],1.03 RQ
same,Hippocampus gene expression: BDNF,[1],1.03 RQ
same,Rest of brain gene expression: BDNF,[1],0.99 RQ
same,Striatum gene expression: BDNF,[1],1.01 RQ
same,Brainstem gene expression: DR D2,dopamine receptor D2,0.96 RQ
same,Cerebellum gene expression: DR D2,dopamine receptor D2,1.13 RQ
same,Cortex gene expression: DR D2,dopamine receptor D2,1.11 RQ
same,Hippocampus gene expression: DR D2,dopamine receptor D2,1.27 RQ
same,Rest of brain gene expression: DR D2,dopamine receptor D2,1.00 RQ
same,Striatum gene expression: DR D2,dopamine receptor D2,1.20 RQ
same,Brainstem gene expression: sPLA2,group 2a sPLA2,0.72 RQ
same,Cerebellum gene expression: sPLA2,group 2a sPLA2,0.86 RQ
same,Cortex gene expression: spla2,group 2a sPLA2,0.85 RQ
same,Hippocampus gene expression: sPLA2,group 2a sPLA2,1.08 RQ
same,Rest of brain gene expression: sPLA2,group 2a sPLA2,0.67 RQ
same,Striatum gene expression: sPLA2,group 2a sPLA2,0.46 RQ
same,Brainstem gene expression: iPLA2,group 6 iPLA2,0.89 RQ
same,Cerebellum gene expression: iPLA2,group 6 iPLA2,1.02 RQ
same,Cortex gene expression: iPLA2,group 6 iPLA2,0.92 RQ
same,Hippocampus gene expression: iPLA2,group 6 iPLA2,1.02 RQ
same,Rest of brain gene expression: iPLA2,group 6 iPLA2,0.95 RQ
same,Striatum gene expression: iPLA2,group 6 iPLA2,0.96 RQ
same,Brainstem gene expression: HO1,heme oxygenase 1,1.01 RQ
same,Cerebellum gene expression: HO1,heme oxygenase 1,1.21 RQ
same,Cortex gene expression: HO1,heme oxygenase 1,1.05 RQ
same,Hippocampus gene expression: HO1,heme oxygenase 1,1.01 RQ
same,Rest of brain gene expression: HO1,heme oxygenase 1,1.00 RQ
same,Striatum gene expression: HO1,heme oxygenase 1,1.09 RQ
same,Brainstem gene expression: PGES3,[2],1.14 RQ
same,Cerebellum gene expression: PGES3,[2],1.09 RQ
same,Cortex gene expression: PGES3,[2],0.91 RQ
same,Hippocampus gene expression: PGES3,[2],1.00 RQ
same,Rest of brain gene expression: PGES3,[2],0.99 RQ
same,Striatum gene expression: PGES3,[2],0.95 RQ
same,Brainstem gene expression: RARa,retinoic acid receptor α,1.00 RQ
same,Cerebellum gene expression: RARa,retinoic acid receptor α,1.07 RQ
same,Cortex gene expression: RAR a,retinoic acid receptor α,1.03 RQ
same,Hippocampus gene expression: RAR a,retinoic acid receptor α,0.96 RQ
same,Rest of brain gene expression: RAR a,retinoic acid receptor α,0.91 RQ
same,Striatum gene expression: RARa,retinoic acid receptor α,0.93 RQ
same,Brainstem gene expression: RXRa,retnoid X receptor α,0.99 RQ
same,Cerebellum gene expression: RXRa,retnoid X receptor α,1.15 RQ
same,Cortex gene expression: RXR a,retnoid X receptor α,1.02 RQ
same,Hippocampus gene expression: RXR a,retnoid X receptor α,1.08 RQ
same,Rest of brain gene expression: RXR a,retnoid X receptor α,1.05 RQ
same,Striatum gene expression: RXRa,retnoid X receptor α,1.14 RQ
same,Brainstem gene expression: RXRb,retnoid X receptor β,1.15 RQ
same,Cerebellum gene expression: RXRb,retnoid X receptor β,1.04 RQ
same,Cortex gene expression: RXR b,retnoid X receptor β,1.02 RQ
same,Hippocampus gene expression: RXR b,retnoid X receptor β,0.97 RQ
same,Rest of brain gene expression: RXR b,retnoid X receptor β,0.91 RQ
same,Striatum gene expression: RXRb,retnoid X receptor β,1.10 RQ
same,Brainstem gene expression: TTR,transthyretin,0.93 RQ
same,Cerebellum gene expression: TTR,transthyretin,1.75 RQ
same,Cortex gene expression: TTR,transthyretin,0.75 RQ
same,Hippocampus gene expression: TTR,transthyretin,6.67 RQ
same,Rest of brain gene expression: TTR,transthyretin,0.71 RQ
same,Striatum gene expression: TTR,transthyretin,2.37 RQ
same,Brainstem gene expression: TH,tyrosine hydroxylase,1.24 RQ
same,Cerebellum gene expression: TH,tyrosine hydroxylase,1.60 RQ
same,Cortex gene expression: TH,tyrosine hydroxylase,1.56 RQ
same,Hippocampus gene expression: TH,tyrosine hydroxylase,1.15 RQ
same,Rest of brain gene expression: TH,tyrosine hydroxylase,1.09 RQ
same,Striatum gene expression: TH,tyrosine hydroxylase,1.12 RQ
same,Brainstem gene expression: UCP2,uncoupling protein 2,1.05 RQ
same,Cerebellum gene expression: UCP2,uncoupling protein 2,1.17 RQ
same,Cortex gene expression: UCP2,uncoupling protein 2,1.04 RQ
same,Hippocampus gene expression: UCP2,uncoupling protein 2,1.26 RQ
same,Rest of brain gene expression: UCP2,uncoupling protein 2,0.97 RQ
same,Striatum gene expression: UCP2,uncoupling protein 2,1.09 RQ
same,Brainstem gene expression: VMAT2,[3],1.34 RQ
same,Hippocampus gene expression: VMAT 2,[3],0.84 RQ
same,Rest of brain gene expression: VMAT2,[3],1.12 RQ
